Data as given in patent US20230126447A1, “OCULAR DRUG DEPOT FOR COMPLEMENT-MEDIATED DISORDERS” (priority 2020, published 2023).

Columns and labels:
[1] = QWBA tissue distribution of [14C] Compound 1, albino Wistar Han rats (PO); type: in vivo; conditions: albino male WH rats, 20 mg/kg PO
Protocol: This study was conducted to determine the tissue distribution of drug-related radioactivity following a single oral (PO) (20 mg/kg) or intravenous (IV) (5 mg/kg) administration of [^14C]
Ten adult male pigmented Long-Evans (LE) rats (Group 1), 1 adult male LE rat (Group 2), and 3 albino Wistar Han (WH) rats (Group 3) received a single oral 20 mg/kg (Groups 1 and 3) or IV 5 mg/kg (Group 2) dose of [^14C] […] The formulation was prepared at a target dose of 5 mg (IV) or 20 mg (PO) […]
The carcasses were frozen in hexane dry-ice and stored at or below −20° C. prior to processing for QWBA. Each carcass was embedded, cut into sagittal sections, and mounted for QWBA. […] The lower limit of quantitation was 0.105 μg equiv/g.

[2] = Ocular tissue and plasma pharmacokinetics, 15 mg/kg oral, New Zealand White rabbits (Example 3/5); type: in vivo
Protocol: Study design including group designation and dose levels are outlined in Table 4. […] Fifteen Dutch Belted and 5 New Zealand White rabbits were used as un-dosed controls. […] The dose volume was 5 mL/kg/dose for all groups. Safety was assessed with toxicological and ophthalmic examinations including slit lamp biomicroscopy, indirect ophthalmoscopy, rebound tonometry, and ultrasonic corneal pachymetry.
Analyst® software (Version 1.6.2) was used to capture the LC-MS/MS data and integrate the peak areas. Calibration standards and QCs were prepared in a blank solution of 75%:25% acetonitrile:water (v:v), ranging from 10 ng/mL to 10,000 ng/mL. Matrix matched standard and QC samples were prepared by mixing 2 μL of standard or QC sample above with 18 μL of appropriate ocular tissue or plasma. The final calibration standards ranged from 1 ng/mL to 1000 ng/mL. All plasma, retina, choroid-RPE, optic nerve, and vitreous humor samples were analyzed in a single run. Iris-ciliary body samples were analyzed in two runs due to a need for sample dilution. […] Dilution QCs were prepared at 5000 ng/mL where appropriate. Two sets of standards were used to bracket the analytical run at the beginning and end of the run. Three sets of QCs were included the analytical runs. All concentrations in ocular matrices are reported as ng/g based on the assumed density of 1 g/mL.
1, 6, 24, 96, 168, and 240 hours post-dose on Day 15, with the eyes collected at the same time as blood sampling. A single blood sample was taken from Groups 4 and 5 at sacrifice. Plasma, vitreous humor (VH), retina, choroid-retina pigmented epithelium (Choroid-RPE), optic nerve (ON), and iris-ciliary body (I-CB) were analyzed by LC-MS/MS to quantify test article concentrations. The lower limit of quantitation (LLOQ) in plasma and vitreous humor was 1.0 ng/mL. The LLOQ was 6.0 ng/g in retina, Choroid-RPE, and I-CB and the optic nerve LLOQ was 15 ng/g, assuming tissue density of 1 g/mL where relevant.
Study design including group designation and dose levels are outlined in Table 18.

[3] = Ocular tissue and plasma pharmacokinetics, 50 mg/kg BID oral, New Zealand White rabbits (Example 4); type: in vivo; conditions: one-hour post-dose on Day 15
Protocol: Study design, including group designation and dose levels, are outlined in Table 15. […] Two Dutch Belted rabbits received vehicle only oral gavage doses for tolerability assessment. […] The dose volume was 5 mL/kg/dose for all groups. Safety was assessed with toxicological and ophthalmic examinations, including slit lamp biomicroscopy, indirect ophthalmoscopy, rebound tonometry, and ultrasonic corneal pachymetry. […] Plasma, vitreous humor (VH), retina, choroid-retina pigmented epithelium (Choroid-RPE), optic nerve (ON), and iris-ciliary body (I-CB) were analyzed by LC-MS/MS to quantify test article concentrations. The lower limit of quantitation (LLOQ) in plasma and vitreous humor was 1.0 ng/mL.

AP activity = assay: cells; conditions: Oryctolagus cuniculus, Erythrocyte, read-out: IC50 for rabbit erythrocyte hemolysis

What does the source list for `CC(=O)c1nn(CC(=O)N2C[C@H](F)C[C@H]2C(=O)Nc2cccc(Br)n2)c2ccc(-c3cnc(C)nc3)cc12` [Compound 1, (2S,4R)-1-(2-(3-Acetyl-5-(2-methylpyrimidin-5-yl)-1H-indazol-1-yl)acetyl)-N-(6-bromopyridin-2-yl)-4-fluoropyrrolidine-2-carboxamide]?
Concentration of radioactivity at Tmax, non-pigmented skin [1]: 2.98 μg equiv/g; Concentration of radioactivity at Tmax, uvea of the non-pigmented eye [1]: 1.68 μg equiv/g; Highest concentration of radioactivity in blood ([1]; 1 h post-dose): 2.77 μg equiv/g; Concentration of radioactivity, uvea of the non-pigmented eye ([1]; 24 h): BQL; Concentration of radioactivity, non-pigmented skin ([1]; 168 h): BQL; Mean Vitreous Humor concentration ([2]; NZW rabbit, 15 mg/kg single oral dose, Day 1, 240 h): BLQ^a; Mean retina concentration ([2]; NZW rabbits, Day 1, 15 mg/kg single dose, 96 hr): BLQ; concentration at 0 h ([2]; New Zealand White, aqueous humor, NZW rabbit, 15 mg/kg single oral dose, Day 1, 0 h): 6.14 ng/mL; concentration at 1 h ([2]; New Zealand White, iris-ciliary body, NZW rabbit, 15 mg/kg single oral dose, Day 1, 1 h): 117 ng/g; MRT last ([2]; New Zealand White, po, Vitreous Humor, NZW rabbit, 15 mg/kg single dose, Day 1): 2.24 h; Cmax ([2]; New Zealand White, po, retina, NZW rabbit, 15 mg/kg single dose, Day 1): 200 ng/g; Tlast ([2]; Vitreous Humor, NZW rabbit, 15 mg/kg single dose, Day 1): 6 h; AUClast ([2]; plasma, NZW rabbit, 15 mg/kg single dose, Day 1): 1430 ng·h/mL; Choroid-RPE tissue exposure in NZW versus DB rabbit [3]: approximately five-fold lower; IC50 (AP activity): 27 nM
